From patent publication US5635379A, “D-2-alkyl-tryptophan and peptides containing same” (Deghenghi; Romano, priority 1990, dated 1997)

What was measured:
[1] = Stability of D-Trp and D-2-methyl-Trp in 1% solutions, peak area by HPLC; format: physicochemical; conditions: pH 2.2 citrate buffer, dark, helium (FIG. 1) and pH 5.4 acetate buffer, oxygen, constant light (FIG. 2)
GH release [2] = assay: GH-releasing activity i.v. in male rats anesthetized with ketamine and xilazine; format: in vivo, Sprague Dawley rats
Experimental: (§1) Male Sprague Dawley rats (Charles River, Calco, Italy) of 2-3 months of age were used. Rats were housed at 22 +2° C., with lighting cycle of 14 h light: 10 h dark (lights on from 06.00 to 20.00 h), at least 10 days before starting the experiments. A standard dry diet and water were available ad libitum.
(§2) Between 09.00-10.00 h rats were anesthetized with ketamine (58 mg/kg, Inoketam, VIRBAC, Milano) and xilazine (12 mg/kg, Rompun, Bayer, Milano). Thirty minutes later, a blood sample ([…]) was withdrawn from the exposed jugular vein, peptides were injected intravenously or subcutaneously, and further blood samples were collected 10, 20 and 30 minutes later.
(§3) Medium and plasma GH was measured by radioimmunoassay using materials supplied by the NIADDK Bethesda, Md. Values were expressed in term of NIASSK-rat-GH-RP-2 standard (potency 2 IU/ml), as ng/ml of medium or plasma.
(§4) The minimum detectable value of rat was 1.0 ng/ml; intra-assay variability was 6%. To avoid inter-assay variation, samples from each experiment were assayed simultaneously.

[3] = tested on: pituitary cell monolayers; assay: GH-releasing activity in pituitary cell culture (monolayers); format: cell-based, Sprague Dawley rats; conditions: for GH in medium: 2 hours incubation
Experimental: as §1
Pituitary tissue used for cell dissociation included only the anterior lobe. Briefly, pituitary glands were collected in sterile F-10 medium and after cutting into small fragments incubated twice (30 minutes each) at 37° C. in F-10 medium containing 6% fetal calf serum and collagenase (2.5 mg/ml) (Boehringer, Mannheim GmbH, Germany). Fragments were then washed in Dulbecco's PBS, Ca^2+ and Mg^2+ free medium and mechanically dissociated. Single cell suspension was planted onto 24-well (2×10^5 cells/well) culture plates. The cells were incubated in F-10 medium supplemented with 10% horse serum, 4% fetal calf serum and gentamycin (25 μg/ml), in a humidified atmosphere of 5% CO2 and 95% air at 37° C.
After 3 days, the medium was removed and the cells washed twice with serum free F-10, then incubated with 1 ml of F-10 containing 0.1% BSA only, or with added various concentrations of synthetic peptides.
After incubation for 2 h at 37° C., media were collected and stored frozen at -20° C. until assayed for measurement of GH content.
as §3, §4

GH release [4] = assay: GH release in pentobarbital-anesthetized rats, s.c.; format: in vivo, Sprague Dawley rats
Experimental: Male Sprague Dawley rats weighing 225-250 g were divided in groups of five animals each. Rats were anesthetized with Nembutal injected intraperiteonally at 50 mg/kg, fifteen minutes prior to the first blood withdrawal taken over heparin by cardiac puncture (for determination of basal GH).
Subcutaneous injections of either HEXARELIN or GHRP-6 were given immediately after the first blood collection, and additional blood samples were collected 15 and 40 minutes later.
Measurement of rat GH was performed by a standard double antibody radioimmunoassay with reagents supplied by the National Pituitary Agency and the National Institute of Arthritis, Diabetes, and Digestive and Kidney Diseases. The standards used were NIADDK-NIH-rGH-RP-2. Statistical data were obtained with the Student's t Test at a significance level of 5%.

[5] = Acute cardiovascular toxicity in the rat, single i.v. dose, mortality; format: in vivo; conditions: observed up to 4 hours
Experimental: These two peptides were also tested for acute cardiovascular toxicity in the rat.
Dosages were calculated on the basis of the declared peptide content in each product, as specified below:
A single dose of HEXARELIN or GHRP-6 was administered to rats in different calendar dates in such a way that each group/dose should be treated in two subsequent days.
For each compound, appropriate amounts of solutions in 0.9% NaCl for injection were prepared just before treatment at the suitable concentrations. The solutions were sterilized by filtration (Millipore filter, pore size 0.22 μm). Owing to the type of the study (acute study) in which formulates were administered just after preparation, stability checks were not performed. Concentration checks were also not performed. The volume of solution injected was maintained constant at 1 ml/Kg.
The intravenous injections were done as a single dose in one vein of the tail with an appropriately gauged sterile, disposable, plastic syringe. The injection rate was about 0.1 ml/sec.
Periodical observations were made up to 4 hours after treatment. Abnormality and mortality were recorded. Body weight was recorded once during pre-trial and on the administration day to calculate the volumes to be injected.

GH release [6] = assay: GH-releasing activity s.c. in male rats anesthetized with ketamine and xilazine; format: in vivo, Sprague Dawley rats
Experimental: as §1, §2, §3, §4

GH release [7] = assay: GH response in conscious, freely-moving rats after antiserum pretreatment and i.v. peptide; format: in vivo; conditions: i.v. 25 μg/kg peptide, pooled over antiserum pretreatments
Experimental: Sixty male rats were prepared with indwelling venous catheters under ether anesthesia three days before experimentation. On the day of experimentation, all animals were given an iv heparin injection (100 IU; 0630 h). At 0700 h, animals were treated with 0.5 ml of either normal serum (control-as), somatostatin antiserum (somatostatin-as; 0.25 ml+0.25 ml saline), growth hormone-releasing hormone antiserum (GHRH-as; 0.25 ml+0.25 ml saline), or both somatostatin antiserum and growth hormone-releasing hormone antiserum (0.25 ml somatostatin-as+0.25 ml GHRH-as). Blood sampling began […] after antiserum pretreatment, with blood samples collected every 20 minutes for three hours. After the 180 minute sample (1100 h), animals were treated iv with 25 μg/kg of either Hexarelin or GHRP-6. Blood samples were then collected at 5, 10, 15, 20 30, 40, and 60 minutes after peptide treatment. All samples were centrifuged immediately and the plasma frozen until assayed. The peak GH response to Hexarelin and GHRP-6 as well as the area under the response curves (AUCs) for the thirty minutes following peptide injection were calculated. Data were subjected to repeated measures analysis of variance and are expressed as mean ±SEM.

plasma testosterone = format: in vivo, Beagle dogs
Text: After an initial flare-up, plasma testosterone fell below castration levels after approximately 10 days, and was maintained for approximately 180 days.

[8] = PLGA implant rods, 20 or 25% loading (7 or 10 mg), subcutaneous

## N[C@H](Cc1c[nH]c2ccccc12)C(=O)O [D-Trp, D-Tryptophan, reference compound]
[1]
  time the compound is stable in solution (HPLC peak area): about 20 days

## GHRP-6 [reference compound]
GH release [2]; i.v. 150 μg/kg, 10 min
  plasma GH: 394.0 ± 31.0 ng/mL
GH release [2]; i.v. 150 μg/kg, 20 min
  plasma GH: 139.3 ± 10.2 ng/mL
GH release [2]; i.v. 150 μg/kg, 30 min
  plasma GH: 42.5 ± 4.5 ng/mL
GH release [2]; i.v. 150 μg/kg, time 0 min (before injection)
  plasma GH: 30.2 ± 7.8 ng/mL
GH release [2]; i.v. 300 μg/kg, 10 min
  plasma GH: 413.6 ± 21.5 ng/mL
GH release [2]; i.v. 300 μg/kg, 20 min
  plasma GH: 162.7 ± 22.1 ng/mL
GH release [2]; i.v. 300 μg/kg, 30 min
  plasma GH: 38.2 ± 7.7 ng/mL
GH release [2]; i.v. 300 μg/kg, time 0 min (before injection)
  plasma GH: 21.9 ± 4.4 ng/mL
GH release [2]; i.v. 600 μg/kg, 10 min
  plasma GH: 542.0 ± 38.0 ng/mL
GH release [2]; i.v. 600 μg/kg, 20 min
  plasma GH: 195.5 ± 11.0 ng/mL
GH release [2]; i.v. 600 μg/kg, time 0 min (before injection)
  plasma GH: 21.2 ± 6.1 ng/mL
[3]; 10^-6 M
  GH in medium: 510.0 ± 12.0 ng/well
[3]; 10^-7 M
  GH in medium: 526.5 ± 19.0 ng/well
[3]; 10^-8 M
  GH in medium: 544.2 ± 23.9 ng/well
[3]; 10^-8 to 10^-6 M, two hours
  GH secretion versus basal: stimulation of GH secretion over basal secretion
GH release [4]; s.c. 25 μg/kg, 0 min (basal)
  POST-DRUG PLASMA GH: 41 ± 16 ng/mL
GH release [4]; s.c. 25 μg/kg, 15 min
  POST-DRUG PLASMA GH: 222 ± 95 ng/mL
GH release [4]; s.c. 25 μg/kg, 40 min
  POST-DRUG PLASMA GH: 110 ± 47 ng/mL
GH release [4]; s.c. 50 μg/kg, 0 min (basal)
  POST-DRUG PLASMA GH: 57 ± 39 ng/mL
GH release [4]; s.c. 50 μg/kg, 15 min
  POST-DRUG PLASMA GH: 262 ± 58 ng/mL
GH release [4]; s.c. 50 μg/kg, 40 min
  POST-DRUG PLASMA GH: 97 ± 44 ng/mL
[5]; single i.v. dose 2.5 mg/kg
  Dead rats/Total N° of rats per group: 0/6
[5]; single i.v. dose 5.0 mg/kg
  Dead rats/Total N° of rats per group: 1/6
[5]; single i.v. dose 7.5 mg/kg
  Dead rats/Total N° of rats per group: 2/6
GH release [6]; s.c. 150 μg/kg, 10 min
  plasma GH: 63.1 ± 11.0 ng/mL
GH release [6]; s.c. 150 μg/kg, 20 min
  plasma GH: 110.4 ± 18.0 ng/mL
GH release [6]; s.c. 150 μg/kg, 30 min
  plasma GH: 77.2 ± 14.0 ng/mL
GH release [6]; s.c. 150 μg/kg, time 0 min (before injection)
  plasma GH: 20.0 ± 5.0 ng/mL
GH release [6]; s.c. 300 μg/kg, 10 min
  plasma GH: 63.9 ± 12.8 ng/mL
GH release [6]; s.c. 300 μg/kg, 20 min
  plasma GH: 123.4 ± 14.6 ng/mL
GH release [6]; s.c. 300 μg/kg, 30 min
  plasma GH: 87.7 ± 11.8 ng/mL
GH release [6]; s.c. 300 μg/kg, time 0 min (before injection)
  plasma GH: 20.0 ± 6.0 ng/mL
GH release [6]; s.c. 600 μg/kg, 10 min
  plasma GH: 93.1 ± 22.3 ng/mL
GH release [6]; s.c. 600 μg/kg, 20 min
  plasma GH: 167.1 ± 14.7 ng/mL
GH release [6]; s.c. 600 μg/kg, 30 min
  plasma GH: 107.8 ± 9.5 ng/mL
GH release [6]; s.c. 600 μg/kg, time 0 min (before injection)
  plasma GH: 18.0 ± 4.0 ng/mL
GH release [7]
  Mean GH: 131 ± 13 ng/mL
  Peak GH: 293 ± 41 ng/mL
GH release [7]; thirty minutes following injection
  GH AUC: 4220 ± 665 ng/ml/30 min

## Cc1[nH]c2ccccc2c1C[C@@H](N)C(=O)O [Example 1, 2-methyl-D-tryptophan]
[1]
  time the compound is stable in solution (HPLC peak area): ≥ 60 days

## Pyro-Glu-His-Ser-Tyr-D-2-alkyl-Trp-Leu-Arg-Pro-NHCH2 CH3 [Example 3]
Plasma testosterone; [8]
  time plasma testosterone was maintained below castration levels: approximately 180 days
  time until plasma testosterone fell below castration levels: approximately 10 days
Plasma testosterone; day 145 after implant
  response to stimulation by i.v. administration of the peptide: absence of response
Plasma testosterone; dog, in vivo, sc
  clinical side effects: No clinical side effects were observed
